Literature values in patent US20180355410A1, “DIAGNOSIS AND TREATMENT OF INFECTIOUS DISEASE” (Cambridge Enterprise Limited, priority 2015, published 2018).

Test system: Neisseria gonorrhoeae
Details: EUCAST clinical breakpoint valid from 1st January 2015

CC[C@H]1OC(=O)[C@H](C)[C@@H](O[C@H]2C[C@@](C)(OC)[C@@H](O)[C@H](C)O2)[C@H](C)[C@@H](O[C@@H]2O[C@H](C)C[C@H](N(C)C)[C@H]2O)[C@](C)(O)C[C@@H](C)CN(C)[C@H](C)[C@@H](O)[C@]1(C)O [Azithromycin]
MIC R-breakpoint (resistant): > 0.5 µg/mL
MIC S-breakpoint (susceptible): ≤ 0.25 µg/mL
